The values below come from patent US6340560B1, “Aminopolycarboxylic acid chelating agent, heavy metal chelate compound thereof, photographic additive and processing method” (Fuji Photo Film Co., Ltd., priority 1996, dated 2002).

This data set can be described thus: Example 12: biodegradability, 302 Revised Zahn-Wellens test (OECD Chemical Test Guideline).

For `CN(CCN(C)[C@@H](CC(=O)O)C(=O)O)[C@@H](CC(=O)O)C(=O)O` [Compound 32], the biodegradable was 70%.
Same read-out and setting: in the case of `CN(CCN(C)[C@@H](CCC(=O)O)C(=O)O)[C@@H](CCC(=O)O)C(=O)O` [Compound 45] it was 70%.
As for `O=C(O)CN(CCN(CC(=O)O)CC(=O)O)CC(=O)O` [Ethylenediaminetetraacetic acid, reference compound], the “biodegradability (in words)” value is on record as “scarcely biodegradable”.
